Measured values published in patent US20040186113A1, “Heterocyclic amines for the treatment of conditions associated with gsk-3” (priority 2001, published 2004).

First: Nc1ncc(-c2cccs2)nc1C(=O)Nc1cccnc1 [Example 6, 3-Amino-6-(2-thienyl)-N-pyridin-3-ylpyrazine-2-carboxamide]
Second: Nc1ncc(-c2cccc(F)c2)nc1C(=O)Nc1cccnc1 [Example 19, 3-Amino-6-(3-fluorophenyl)-N-pyridin-3-ylpyrazine-2-carboxamide]
The melting point of the first is lower: 178 to 189 °C for the first, 234.5 to 238 °C for the second.

First: Nc1ncc(-c2ccc(F)cc2)nc1C(=O)Nc1cccnc1 [Example 10, 3-Amino-6-(4-fluorophenyl)-N-pyridin-3-ylpyrazine-2-carboxamide]
Second: Nc1ncc(-c2ccc(F)c(F)c2)nc1C(=O)Nc1cccnc1 [Example 15, 3-Amino-6-(3,4-difluorophenyl)-N-pyridin-3-ylpyrazine-2-carboxamide]
The melting point of the first is lower: 193 to 197 °C for the first, 232 to 234 °C for the second.

Compared with `Nc1ncc(-c2cccc(Cl)c2Cl)nc1C(=O)Nc1cccnc1` [Example 12, 3-Amino-6-(2,3-dichlorophenyl)-N-pyridin-3-ylpyrazine-2-carboxamide], `Nc1ncc(-c2ccccc2F)nc1C(=O)Nc1cccnc1` [Example 20, 3-Amino-6-(2-fluorophenyl)-N-pyridin-3-ylpyrazine-2-carboxamide] is lower in melting point: 239 to 241 °C for the first, 221 to 225 °C for the second.

First: Nc1ncc(-c2ccc(F)cc2F)nc1C(=O)Nc1cccnc1 [Example 14, 3-Amino-6-(2,4-difluorophenyl)-N-pyridin-3-ylpyrazine-2-carboxamide]
Second: Nc1ncc(-c2ccc(F)c(Cl)c2)nc1C(=O)Nc1cccnc1 [Example 16, 3-Amino-6-(3-chloro-4-fluorophenyl)-N-pyridin-3-ylpyrazine-2-carboxamide]
The melting point of the first is lower: 232 to 234 °C for the first, 236 to 238.5 °C for the second.

First: Cc1cc(-c2cnc(N)c(C(=O)Nc3cccnc3)n2)ccc1F [Example 17, 3-Amino-6-[4-fluoro-3-methylphenyl]-N-pyridin-3-ylpyrazine-2-carboxamide]
Second: Cc1ccc(-c2cnc(N)c(C(=O)Nc3cccnc3)n2)cc1C [Example 18, 3-Amino-6-(3,4-dimethylphenyl)-N-pyridin-3-ylpyrazine-2-carboxamide]
The melting point of the first is higher: 186 to 189 °C for the first, 178 to 182 °C for the second.
